Experimental data: paper PMC10892410, “[^18F]Fluspidine—A PET Tracer for Imaging of σ1 Receptors in the Central Nervous System” (Pharmaceuticals, 2024)
Several values for one entry are separate records, joined by “and”; a condition that tells them apart may be missing. Equal entries are not always repeated. Where two headings read alike, the source gives them in different places.

How the values were obtained:
σ1 receptor [1] = conditions: in Figure 5; cited from earlier work
σ2 receptor [2] = conditions: in Figure 5; cited from earlier work
σ2 receptor [3] = target: σ2 receptor; design: method as in PMID 22136765, PMID 21126878, PMID 21072511, PMID 19791807, PMID 21618432; conditions: cited from earlier work
σ1 receptor [4] = conditions: cited from earlier work
σ1 receptor [5] = assay: σ1 receptor affinity (receptor binding); conditions: ratio Ki(σ2)/Ki(σ1)
[6] = metabolic stability with mouse liver microsomes and NADPH; conditions: LC-MS
Method: After an incubation period of 90 min, the amount of remaining test compound was determined by LC-MS [42, 43, 44].

human serum albumin = human serum albumin (Homo sapiens, UniProt P02768); assay: plasma protein binding by HPLC on human serum albumin stationary phase; format: in vitro ADME; conditions: stationary phase coated with human serum albumin
human serum albumin, sequence (P02768 25-609): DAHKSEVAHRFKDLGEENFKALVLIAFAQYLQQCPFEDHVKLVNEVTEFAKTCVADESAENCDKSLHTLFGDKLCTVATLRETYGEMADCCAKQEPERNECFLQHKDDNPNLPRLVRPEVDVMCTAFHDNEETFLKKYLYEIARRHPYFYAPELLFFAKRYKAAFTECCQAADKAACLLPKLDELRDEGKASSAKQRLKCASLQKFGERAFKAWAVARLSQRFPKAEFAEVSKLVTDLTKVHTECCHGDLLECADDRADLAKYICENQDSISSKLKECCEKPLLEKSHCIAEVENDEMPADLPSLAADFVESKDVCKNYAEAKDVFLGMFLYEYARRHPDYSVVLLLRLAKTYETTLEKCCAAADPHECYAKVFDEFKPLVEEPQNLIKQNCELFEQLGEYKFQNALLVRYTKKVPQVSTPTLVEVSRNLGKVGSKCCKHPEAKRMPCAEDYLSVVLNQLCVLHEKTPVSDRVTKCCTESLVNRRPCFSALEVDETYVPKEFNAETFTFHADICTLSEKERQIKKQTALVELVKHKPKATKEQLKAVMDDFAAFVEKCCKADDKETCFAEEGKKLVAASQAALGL
Method: Plasma protein binding was recorded by HPLC analysis using a stationary phase coated with human serum albumin. The resulting retention times correlate with binding to human serum albumin [42].

[7] = pH 7.2; cited from earlier work
[8] = logD7.4 by micro-shake flask method; format: physicochemical; conditions: n-octanol/MOPS buffer pH 7.4, determined by LC-MS
Method: The lipophilicity of the homologous fluoroalkyl derivatives 1–4 was determined by the micro-shake flask method. After the distribution of the compounds between an n-octanol layer and MOPS buffer (pH 7.4), the amount of the compound in the buffer layer was determined by mass spectrometry. The recorded logD7.4 values were compared with the logD7.2 values determined by the distribution of the analogous ^18F-labeled compounds [^18F]1–[^18F]4 between n-octanol and phosphate-buffered saline, pH 7.2. The logD7.2 values were calculated from the distribution of radioactivity in both layers.

[9] = rhesus monkey, in vivo; cited from earlier work
σ1 receptor [10] = conditions: cited from earlier work; for VT: healthy volunteers
σ1 receptor [11] = conditions: cited from earlier work; for SUV120min p.i. as % of SUV5min p.i.: piglet brain; for SUV120min p.i. as % of SUV5min p.i. / whole-brain distribution volume VT: baseline; for VT, cerebellum / VT, colliculi / VT, cortex / VT, hippocampus / VT, midbrain / VT, striatum / VT, thalamus: piglet, Logan plot, baseline conditions, N = 3; for whole-brain distribution volume VT / decrease in VT upon SA 4503 blockade of σ1 receptors / standardized uptake value (SUV) in brain: piglets; for whole-brain distribution volume VT: two-tissue compartment modeling, metabolite-corrected plasma input; for decrease in VT upon SA 4503 blockade of σ1 receptors: whole brain, Logan plot analysis; for standardized uptake value (SUV) in brain: within 3 min after injection
σ1 receptor [12] = conditions: rhesus monkey, 1-tissue compartment model, baseline conditions, N = 1; cited from earlier work
σ1 receptor [13] = conditions: cited from earlier work; for uptake in the brain: i.v., female CD1-mice
[14] = cited from earlier work
σ1 receptor [15] = conditions: healthy volunteers and HD patients, therapeutic doses; cited from earlier work
dopamine D2/D3 receptors = conditions: healthy volunteers and HD patients; cited from earlier work
[16] = racemic spirocyclic piperidines, read-out: Ki(σ1)
[17] = pure fluspidine enantiomers, read-out: Ki, σ1 receptor affinity

COc1cc(CCN2CCN(CCCc3ccccc3)CC2)ccc1OC[18F] [[^18F]FM-SA 4503]
Ki (σ1 receptor [1]): 6.4 nM | Ki (σ2 receptor [2]): 250 nM

CC(c1ccccc1)N1CCC2(CC1)OC(CCF)c1ccccc12 (stereo not drawn) [compound 7]
Ki (σ2 receptor [3]; cells printed in µM): > 1 µM | Ki (σ1 receptor [4]; [16]): 1 nM | σ1/σ2 Selectivity (σ1 receptor [5]): >1000

FCCC1OC2(CCN(Cc3ccc(F)cc3)CC2)c2ccccc21 (stereo not drawn) [compound 5]
Ki (σ2 receptor [3]): 0.481 µM | Ki (σ1 receptor [4]; [16]): 0.57 nM | σ1/σ2 Selectivity (σ1 receptor [5]): 844

FCCC1OC2(CCN(Cc3ccccc3)CC2)c2ccccc21 (stereo not drawn) [compound 2]
In Vitro Metabolism—Intact Compd. after 90 min [6]: 34% and 34 ± 8.8% | fraction unbound (human serum albumin): 0.12 | logD7.2 PET Tracer [7]: 2.57 ± 0.32 | Ki (σ2 receptor [3]): 0.785 µM | Ki (σ1 receptor [4]; [16]): 0.59 nM | logD [8]: 3.33 ± 0.07 | σ1/σ2 Selectivity (σ1 receptor [5]): 1331

[18F]CC[C@@H]1OC2(CCN(Cc3ccccc3)CC2)c2ccccc21 [(S)-[^18F]2]
fraction of unchanged PET tracer in plasma [9]: > 30% | VT (σ1 receptor [10]; frontal cortex): 21 mL/g | VT (σ1 receptor [10]; striatum): 19 mL/g | free fraction in blood plasma fp (σ1 receptor [10]; human): 0.023 | SUV120min p.i. as % of SUV5min p.i. (σ1 receptor [11]): ~ 50% | VT, cerebellum (σ1 receptor [11]): 14.8 mL/g | VT, colliculi (σ1 receptor [11]): 15.2 mL/g | VT, cortex (σ1 receptor [11]): 9.8 to 13.1 mL/g | VT, hippocampus (σ1 receptor [11]): 13.5 mL/g | VT, midbrain (σ1 receptor [11]): 15.4 mL/g | VT, striatum (σ1 receptor [11]): 13.5 mL/g | VT, thalamus (σ1 receptor [11]): 14.1 mL/g | whole-brain distribution volume VT (σ1 receptor [11]): 13 mL/g | decrease in VT upon SA 4503 blockade of σ1 receptors (σ1 receptor [11]): −55% | standardized uptake value (SUV) in brain (σ1 receptor [11]): about 2 | VT, amygdala (σ1 receptor [12]): 14.6 mL/g | VT, caudate (σ1 receptor [12]): 13.5 mL/g | VT, cerebellum (σ1 receptor [12]): 13.6 mL/g | VT, cortex (σ1 receptor [12]): 14.6 to 19.6 mL/g | VT, hippocampus (σ1 receptor [12]): 16.4 mL/g | VT, putamen (σ1 receptor [12]): 14.9 mL/g | VT, thalamus (σ1 receptor [12]): 12.2 mL/g

FCCC1OC2(CCN(CC3CCCCC3)CC2)c2ccccc21 (stereo not drawn) [compound 6]
Ki (σ2 receptor [3]): 0.057 µM | Ki (σ1 receptor [4]; [16]): 0.71 nM | σ1/σ2 Selectivity (σ1 receptor [5]): 80

CC(C)=CCN1CCC2(CC1)OC(CCF)c1ccccc12 (stereo not drawn) [compound 10]
Ki (σ2 receptor [3]; cells printed in µM): > 1 µM | Ki (σ1 receptor [4]; [16]): 1.5 nM

FCC[C@@H]1OC2(CCN(Cc3ccccc3)CC2)c2ccccc21 [(S)-2]
Ki (σ1 receptor [4]; [17]): 2.3 nM

COc1ccc(CCN2CCN(CCCc3ccccc3)CC2)cc1OC [cutamesine, 1-[2-(3,4-dimethoxyphenyl)ethyl]-4-(3-phenylpropyl)piperazine]
IC50 (σ1 receptor [1]): 4.6 nM | IC50 (σ2 receptor [2]): 63.1 nM

FCC1OC2(CCN(Cc3ccccc3)CC2)c2ccccc21 (stereo not drawn) [compound 1]
In Vitro Metabolism—Intact Compd. after 90 min [6]: 53% and 53 ± 3.9% | fraction unbound (human serum albumin): 0.16 | logD7.2 PET Tracer [7]: 2.39 ± 0.04 | Ki (σ2 receptor [3]): 0.55 µM | Ki (σ1 receptor [4]; [16]): 0.74 nM | logD [8]: 2.8 ± 0.04 | σ1/σ2 Selectivity (σ1 receptor [5]): 743

COc1cc(CCN2CCN(CCCc3ccccc3)CC2)ccc1OCC[18F] [[^18F]FE-SA 4503]
IC50 (σ1 receptor [1]): 6.5 nM | IC50 (σ2 receptor [2]): 2.1 nM

FCCCCC1OC2(CCN(Cc3ccccc3)CC2)c2ccccc21 (stereo not drawn) [compound 4]
In Vitro Metabolism—Intact Compd. after 90 min [6]: 28% and 28 ± 4.5% | fraction unbound (human serum albumin): 0.05 | logD7.2 PET Tracer [7]: 3.11 ± 0.14 | Ki (σ2 receptor [3]): 0.489 µM | Ki (σ1 receptor [4]; [16]): 1.2 nM | logD [8]: 3.71 ± 0.14 | σ1/σ2 Selectivity (σ1 receptor [5]): 408

FCCC1OC2(CCN(Cc3ccccc3)CC2)c2ccccc21 (racemic) [rac-[^18F]2]
uptake in the brain (σ1 receptor [13]; 5 min p.i.): 3.88 % ID/g | uptake in the brain (σ1 receptor [13]; 30 min p.i.): 4.71 % ID/g | uptake in the brain (σ1 receptor [13]; 120 min p.i.): 2.82 % ID/g | Ratio of activity concentration, cerebellum vs. olfactory bulb (σ1 receptor [13]; mouse, 45 min p.i., N = 1): 1.75 | Ratio of activity concentration, cortex vs. olfactory bulb (σ1 receptor [13]; mouse, 45 min p.i., N = 1): 1.45 | Ratio of activity concentration, facial nucleus vs. olfactory bulb (σ1 receptor [13]; mouse, 45 min p.i., N = 1): 4.69 | Ratio of activity concentration, hippocampus vs. olfactory bulb (σ1 receptor [13]; mouse, 45 min p.i., N = 1): 1.21 | Ratio of activity concentration, striatum vs. olfactory bulb (σ1 receptor [13]; mouse, 45 min p.i., N = 1): 1.11 | Ratio of activity concentration, superficial grey layer of superior colliculus vs. olfactory bulb (σ1 receptor [13]; mouse, 45 min p.i., N = 1): 1.57 | Ratio of activity concentration, thalamus vs. olfactory bulb (σ1 receptor [13]; mouse, 45 min p.i., N = 1): 1.24 | activity in brain due to unchanged radioligand ([14]; brains of CD-1 mice, 60 min after intravenous administration): 98% | proportion of unchanged PET tracer in plasma ([14]; mouse, in vivo, iv): 75%

CCCCCCCCN1CCC2(CC1)OC(CCF)c1ccccc12 (stereo not drawn) [compound 9]
Ki (σ2 receptor [3]): 0.118 µM | Ki (σ1 receptor [4]; [16]): 15 nM | σ1/σ2 Selectivity (σ1 receptor [5]): 7.9

FCCCC1OC2(CCN(Cc3ccccc3)CC2)c2ccccc21 (stereo not drawn) [compound 3]
In Vitro Metabolism—Intact Compd. after 90 min [6]: 33% and 33 ± 7.9% | fraction unbound (human serum albumin): 0.09 | logD7.2 PET Tracer [7]: 2.78 ± 0.06 | Ki (σ2 receptor [3]): 0.837 µM | Ki (σ1 receptor [4]; [16]): 1.4 nM | logD [8]: 3.6 ± 0.12 | σ1/σ2 Selectivity (σ1 receptor [5]): 598

FCC[C@H]1OC2(CCN(Cc3ccccc3)CC2)c2ccccc21 [(R)-2]
Ki (σ1 receptor [4]; [17]): 0.57 nM

CCCCN1CCC2(CC1)OC(CCF)c1ccccc12 (stereo not drawn) [compound 8]
Ki (σ2 receptor [3]): 0.878 µM | Ki (σ1 receptor [4]; [16]): 3.9 nM | σ1/σ2 Selectivity (σ1 receptor [5]): 225

[18F]CC[C@H]1OC2(CCN(Cc3ccccc3)CC2)c2ccccc21 [(R)-[^18F]2]
fraction of unchanged PET tracer in plasma [9]: > 30% | SUV120min p.i. as % of SUV5min p.i. (σ1 receptor [11]): ~ 80% | VT, cerebellum (σ1 receptor [11]): 140 mL/g | VT, colliculi (σ1 receptor [11]): 123 mL/g | VT, cortex (σ1 receptor [11]): 67.8 to 98.4 mL/g | VT, hippocampus (σ1 receptor [11]): 95.2 mL/g | VT, midbrain (σ1 receptor [11]): 132 mL/g | VT, striatum (σ1 receptor [11]): 100 mL/g | VT, thalamus (σ1 receptor [11]): 106 mL/g | whole-brain distribution volume VT (σ1 receptor [11]): 133 mL/g | decrease in VT upon SA 4503 blockade of σ1 receptors (σ1 receptor [11]): −89% | standardized uptake value (SUV) in brain (σ1 receptor [11]): about 2 | VT, amygdala (σ1 receptor [12]): 153 mL/g | VT, caudate (σ1 receptor [12]): 181 mL/g | VT, cerebellum (σ1 receptor [12]): 175 mL/g | VT, cortex (σ1 receptor [12]): 174 to 291 mL/g | VT, hippocampus (σ1 receptor [12]): 193 mL/g | VT, putamen (σ1 receptor [12]): 199 mL/g | VT, thalamus (σ1 receptor [12]): 128 mL/g

CCCN1CCC(c2cccc(S(C)(=O)=O)c2)CC1 [pridopidine, 4-[3-(methylsulfonyl)phenyl]-1-propylpiperidine]
binding to the σ1 receptor in the brain (occupancy study) (σ1 receptor [15]): selective binding | occupancy of dopamine D2/D3 receptors (dopamine D2/D3 receptors): minimal occupancy
